Measurements: EP4806891A1 (Kangbaida (Sichuan) Biotechnology Co., Ltd., priority 2023, dated 2025)

Key:
HEK-Blue-hTLR7 cells = target: T1, HEK-Blue-hTLR7 cells (Homo sapiens, UniProt Q9NYK1); test: HEK-Blue-hTLR7 cell inhibition assay; format: cell-based; conditions: R848 0.8 µM, 16 h, OD 620 nm, read-out: TLR7 IC50
T1 construct: expressed in transfected cells; host or cells: HEK-Blue-hTLR7 cells (HEK293-derived reporter line)
T1 sequence (Q9NYK1 27-1049): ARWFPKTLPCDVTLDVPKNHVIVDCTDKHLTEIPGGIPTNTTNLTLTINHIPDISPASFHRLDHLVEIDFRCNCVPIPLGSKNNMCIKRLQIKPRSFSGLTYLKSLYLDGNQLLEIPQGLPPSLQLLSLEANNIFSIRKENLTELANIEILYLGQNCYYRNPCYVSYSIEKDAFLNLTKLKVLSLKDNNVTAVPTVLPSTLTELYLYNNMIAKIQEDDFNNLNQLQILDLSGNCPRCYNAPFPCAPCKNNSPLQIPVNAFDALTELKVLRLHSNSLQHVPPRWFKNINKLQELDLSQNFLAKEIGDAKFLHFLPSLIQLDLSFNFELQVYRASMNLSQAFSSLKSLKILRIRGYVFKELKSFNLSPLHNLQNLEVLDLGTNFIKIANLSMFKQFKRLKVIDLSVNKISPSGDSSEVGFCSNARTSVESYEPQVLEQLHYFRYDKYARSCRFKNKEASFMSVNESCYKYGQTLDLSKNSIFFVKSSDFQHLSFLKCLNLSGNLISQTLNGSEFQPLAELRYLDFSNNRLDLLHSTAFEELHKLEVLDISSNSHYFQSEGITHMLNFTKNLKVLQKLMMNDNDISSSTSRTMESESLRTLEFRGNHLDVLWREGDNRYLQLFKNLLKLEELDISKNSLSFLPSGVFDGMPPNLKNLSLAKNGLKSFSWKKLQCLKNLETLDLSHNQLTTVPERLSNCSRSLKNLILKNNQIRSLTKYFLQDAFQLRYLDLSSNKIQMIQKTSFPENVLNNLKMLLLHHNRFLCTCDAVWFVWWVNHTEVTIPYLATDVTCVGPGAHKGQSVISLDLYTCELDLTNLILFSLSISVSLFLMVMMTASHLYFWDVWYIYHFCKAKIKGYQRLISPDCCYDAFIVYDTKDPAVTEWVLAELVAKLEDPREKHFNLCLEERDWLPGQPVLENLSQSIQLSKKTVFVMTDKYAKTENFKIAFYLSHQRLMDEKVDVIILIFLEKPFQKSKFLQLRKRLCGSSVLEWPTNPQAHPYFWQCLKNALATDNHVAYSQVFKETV
Method: (§1) HEK-Blue-hTLR7/8/9 cell inhibition assay
(§2) 1. HEK-Blue-hTLR7/8 cells (1 × 10^4 cells/well) and HEK-Blue-hTLR9 cells (1.5 × 10^4 cells/well) were seeded in a 384-well cell culture plate, with a volume of 30 µL per well. The plate was incubated at 37°C in a 5% CO2 incubator for 4 h. 2. The compound was prepared with DMSO and diluted in DMEM medium to 10 concentrations (1:3 dilution), with final concentrations of 10000, 3333.3, 1111.1, 370.4, 123.5, 41.2, 13.7, 4.6, 1.5, and 0.5 nM; R848 was prepared with DMSO and diluted in DMEM medium, with final concentrations of 0.8 µM (HEK-Blue-hTLR7) and 3 µM (HEK-Blue-hTLR8); ODN2006 was prepared with endotoxin-free water and diluted in DMEM medium, with a final concentration of 1 µM. 3. Cells treated with DMSO were used as the blank control group, while cells treated solely with Resiquimod (R848) were used as the positive control group for HEK-Blue-hTLR7/8, and cells treated solely with ODN2006 were used as the positive control group for HEK-Blue-hTLR9. Cells treated with the test compound together with R848 or ODN2006 were used as the test group. Two parallel wells were set for each group and were placed at 37°C in a 5% CO2 incubator for incubation. 4. After being incubated for 4 h, the 384-well plate of HEK-Blue-hTLR7/8 was taken out from the incubator, and R848 alone or both R848 and the diluted compound were separately added into each well. The plate was placed at 37°C in a 5% CO2 incubator for incubation for 16 h; the 384-well plate of HEK-Blue-hTLR9 was taken out from the incubator, and ODN2006 alone or both ODN2006 and the diluted compound were added separately to each well. The plate was incubated at 37°C in a 5% CO2 incubator for 16 h. 5. After being incubated for 16 h, the 384-well plate was removed from the incubator and centrifuged at 1000 rpm for 1 minute. The optical density value of each well at 620 nm was measured using a multifunctional microplate reader. 6. The cell inhibition rate was calculated as (1-(OD620 test group-OD620 blank group)/(OD620 positive group-OD620 blank group))×100%, and the half maximal inhibitory concentration (IC50) was calculated through curve fitting. Table 1: Activity of the compounds of the present disclosure in HEK-Blue-hTLR7/8/9 cellular assays

HEK-Blue-hTLR8 cells = target: T2, HEK-Blue-hTLR8 cells (Homo sapiens, UniProt Q9NR97); test: HEK-Blue-hTLR8 cell inhibition assay; format: cell-based; conditions: R848 3 µM, 16 h, OD 620 nm, read-out: TLR8 IC50
T2 construct: expressed in transfected cells; host or cells: HEK-Blue-hTLR8 cells (HEK293-derived reporter line)
T2 sequence (Q9NR97 27-1041): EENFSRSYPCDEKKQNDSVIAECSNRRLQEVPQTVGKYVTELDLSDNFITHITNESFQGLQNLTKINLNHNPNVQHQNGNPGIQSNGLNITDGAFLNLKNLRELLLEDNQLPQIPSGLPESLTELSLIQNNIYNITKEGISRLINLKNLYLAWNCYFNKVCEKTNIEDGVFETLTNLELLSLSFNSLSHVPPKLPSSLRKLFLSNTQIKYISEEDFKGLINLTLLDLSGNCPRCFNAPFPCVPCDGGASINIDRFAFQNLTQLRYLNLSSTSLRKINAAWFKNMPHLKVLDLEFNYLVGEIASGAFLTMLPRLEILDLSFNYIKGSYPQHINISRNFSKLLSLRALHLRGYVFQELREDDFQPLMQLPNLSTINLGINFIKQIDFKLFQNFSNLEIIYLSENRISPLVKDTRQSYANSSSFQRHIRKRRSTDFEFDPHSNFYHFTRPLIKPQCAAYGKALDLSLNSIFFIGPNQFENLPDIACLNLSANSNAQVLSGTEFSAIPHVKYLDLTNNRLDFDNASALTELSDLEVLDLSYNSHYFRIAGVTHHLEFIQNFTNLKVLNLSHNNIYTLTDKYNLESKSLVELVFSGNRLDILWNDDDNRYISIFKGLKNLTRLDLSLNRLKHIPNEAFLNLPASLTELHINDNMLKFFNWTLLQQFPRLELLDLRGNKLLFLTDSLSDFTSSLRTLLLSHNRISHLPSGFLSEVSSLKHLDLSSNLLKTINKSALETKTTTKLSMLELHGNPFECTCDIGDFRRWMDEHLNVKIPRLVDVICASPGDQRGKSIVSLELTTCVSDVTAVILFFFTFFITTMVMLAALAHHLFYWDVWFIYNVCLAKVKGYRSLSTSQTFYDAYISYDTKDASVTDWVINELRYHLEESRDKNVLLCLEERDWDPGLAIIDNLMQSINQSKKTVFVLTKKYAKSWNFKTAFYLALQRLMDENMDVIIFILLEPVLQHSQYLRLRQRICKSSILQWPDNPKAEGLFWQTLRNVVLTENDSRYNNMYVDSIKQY
Method: as §1, §2

SMILES | IC50 (HEK-Blue-hTLR7 cells) [nM] | IC50 (HEK-Blue-hTLR8 cells) [nM]
CN1CCC(n2cnc([C@]34CN(c5ccc(C#N)n6ncc(F)c56)C[C@@]3(C(F)(F)F)C4)n2)CC1 [Compound 74, 3-fluoro-4-((1S,5R)-1-(1-(1-methylpiperidin-4-yl)-1H-1,2,4-triazol-3-yl)-5-(trifluoromethyl)-3-azabicyclo[3.1.0]hexan-3-yl)pyrazolo[1,5-a]pyridine-7-carbonitrile] | < 100 | < 100
CN1[C@@H]2CC[C@H]1C[C@@H](c1nnc([C@]34CN(c5ccc(C(F)(F)F)c6ncccc56)C[C@@]3(C(F)(F)F)C4)o1)C2 [Compound 78, 2-((1R,3R,5S)-8-methyl-8-azabicyclo[3.2.1]octan-3-yl)-5-((1S,5R)-5-(trifluoromethyl)-3-(8-(trifluoromethyl)quinolin-5-yl)-3-azabicyclo[3.1.0]hexan-1-yl)-1,3,4-oxadiazole] | < 100 | < 100
CN(C)C12CCC(c3nnc([C@]45CN(c6ccc(C(F)(F)F)c7ncccc67)C[C@@]4(C(F)(F)F)C5)o3)(CC1)CC2 [Compound 82, N,N-dimethyl-4-(5-((1S,5R)-5-(trifluoromethyl)-3-(8-(trifluoromethyl)quinolin-5-yl)-3-azabicyclo[3.1.0]hexan-1-yl)-1,3,4-oxadiazol-2-yl)bicyclo[2.2.2]octan-1-amine] | < 100 | < 100
CN1CCC(c2nnc([C@]34CN(c5ccc(C(F)(F)F)c6nccnc56)C[C@@]3(C(F)(F)F)C4)o2)CC1 [Compound 88, 2-(1-methylpiperidin-4-yl)-5-((1S,5R)-5-(trifluoromethyl)-3-(8-(trifluoromethyl)quinoxalin-5-yl)-3-azabicyclo[3.1.0]hexan-1-yl)-1,3,4-oxadiazole] | < 100 | < 100
CN1CCC(Oc2nnc([C@]34CN(c5ccc(C#N)n6nccc56)C[C@@]3(C(F)(F)F)C4)o2)CC1 [Compound 89, 4-((1S,5R)-1-(5-((1-methylpiperidin-4-yl)oxy)-1,3,4-oxadiazol-2-yl)-5-(trifluoromethyl)-3-azabicyclo[3.1.0]hexan-3-yl)pyrazolo[1,5-a]pyridine-7-carbonitrile] | < 100 | < 100
